Measurements reported in patent USRE42890E1, “Furazanobenzimidazoles” (Basilea Pharmaceutica AG, priority 2003, dated 2011).
Read-outs that look alike come from different tables or passages of the source.

Columns and labels:
[1] = tested on: adherent cells or suspension cells; test: Hoechst 33342 nuclear staining (fraction of apoptotic nuclei); assay type: cell-based; set-up: key: 0 relating to no activity; 1 relating to weak activity comprising less than 70% of the cells; score 2 relating to strong activity comprising more than 70% of the cells
HT1080 = test: MTS proliferation assay, HT1080; assay type: cell-based, human; settings: HT1080, 72 h incubation, read-out: MTS proliferation assay IC 50 HT1080
Procedure, shortened: (§1)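 Proliferation: RPMI-1640/FCS complete medium, 37 °C, 7.5% CO2, cells plated 24 h pre-dose; compounds at 10, 3, 1, 0.3 μM final for 72 h; MTS, 492 nm.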

HeLa = test: MTS proliferation assay, HeLa; assay type: cell-based, human; settings: 72 h incubation, read-out: MTS proliferation assay IC 50 HeLa
Procedure, shortened: as §1

Jily = test: MTS proliferation assay, Jily; assay type: cell-based; settings: 72 h incubation, read-out: MTS proliferation assay IC 50 Jily
Procedure, shortened: (§2)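 Viability after 72 h compound exposure at 10, 3, 1 and 0.3 μM final was scored by MTS absorbance (492 nm, 3 h reagent incubation), with cells kept in RPMI-1640 containing 5% or 10% fetal calf serum.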

Jurkat = test: MTS proliferation assay, Jurkat; assay type: cell-based, human; settings: 72 h incubation, read-out: MTS proliferation assay IC 50 Jurkat
Procedure, shortened: as §1

MRC5 = test: MTS proliferation assay, MRC5; assay type: cell-based; settings: MRC5, 72 h incubation, read-out: MTS proliferation assay IC 50 MRC5
Procedure, shortened: as §2

SMILES	IC50 (HT1080)	Hoechst 33342 nuclear staining score ([1]; H460, conc 0.01 μm)	Hoechst 33342 nuclear staining score ([1]; H460, conc 0.1 μm)	Hoechst 33342 nuclear staining score ([1]; H460, conc 1 μm)	Hoechst 33342 nuclear staining score ([1]; HeLa, conc 0.01 μm)	Hoechst 33342 nuclear staining score ([1]; HeLa, conc 0.1 μm)	Hoechst 33342 nuclear staining score ([1]; HeLa, conc 1 μm)	Hoechst 33342 nuclear staining score ([1]; Jily, conc 0.01 μm)	Hoechst 33342 nuclear staining score ([1]; Jily, conc 0.1 μm)	Hoechst 33342 nuclear staining score ([1]; Jily, conc 1 μm)	Hoechst 33342 nuclear staining score ([1]; Jurkat, conc 0.01 μm)	Hoechst 33342 nuclear staining score ([1]; Jurkat, conc 0.1 μm)	Hoechst 33342 nuclear staining score ([1]; Jurkat, conc 1 μm)	Hoechst 33342 nuclear staining score ([1]; MRC5, conc 0.01 μm)	Hoechst 33342 nuclear staining score ([1]; MRC5, conc 0.1 μm)	Hoechst 33342 nuclear staining score ([1]; MRC5, conc 1 μm)	Hoechst 33342 nuclear staining score ([1]; PBLs, conc 0.01 μm)	Hoechst 33342 nuclear staining score ([1]; PBLs, conc 0.1 μm)	Hoechst 33342 nuclear staining score ([1]; PBLs, conc 1 μm)	IC50 (Jily)	further results
Nc1nonc1-c1nc2ccccc2n1CC(=O)c1cccs1 [Example 72]	100 to 1000 nM	0	0	2 (score 2 relating to strong activity comprising more than 70% of the cells)	0	0	2 (score 2 relating to strong activity comprising more than 70% of the cells)	0	0	2 (score 2 relating to strong activity comprising more than 70% of the cells)	0	1 (1 relating to weak activity comprising less than 70% of the cells)	2 (score 2 relating to strong activity comprising more than 70% of the cells)	0	0	0	0	0	0	100 to 1000 nM	IC50 (HeLa): 100 to 1000 nM; IC50 (Jurkat): 100 to 1000 nM; IC50 (MRC5): 100 to 1000 nM
COc1ccc(C(=O)Cn2c(-c3nonc3N)nc3ccccc32)cc1[N+](=O)[O-] [Example 68]	100 to 1000 nM	0	0	2 (score 2 relating to strong activity comprising more than 70% of the cells)	0	0	2 (score 2 relating to strong activity comprising more than 70% of the cells)	0	1 (1 relating to weak activity comprising less than 70% of the cells)	1 (1 relating to weak activity comprising less than 70% of the cells)	0	2 (score 2 relating to strong activity comprising more than 70% of the cells)	2 (score 2 relating to strong activity comprising more than 70% of the cells)	0	0	1 (1 relating to weak activity comprising less than 70% of the cells)	0	0	0	10 to 100 nM	IC50 (HeLa): 100 to 1000 nM; IC50 (Jurkat): 10 to 100 nM; IC50 (MRC5): 100 to 1000 nM
Nc1nonc1-c1nc2ccccc2n1COc1ccccc1 [Example 7, 4-(1-Phenoxymethyl-1H-benzimidazol-2-yl)-furazan-3-ylamine]	–	0	0	2 (score 2 relating to strong activity comprising more than 70% of the cells)	0	0	2 (score 2 relating to strong activity comprising more than 70% of the cells)	0	0	2 (score 2 relating to strong activity comprising more than 70% of the cells)	0	0	2 (score 2 relating to strong activity comprising more than 70% of the cells)	0	0	0	0	0	0	100 to 1000 nM	IC50 (HT1080; Homo sapiens, HT-1080): 100 to 1000 nM; IC50 (HeLa; Homo sapiens): 100 to 1000 nM; IC50 (Jurkat; Homo sapiens): 100 to 1000 nM; IC50 (MRC5; Homo sapiens): 100 to 1000 nM

The next lines start with results.

IC50 (HT1080)	SMILES	Hoechst 33342 nuclear staining score ([1]; H460, conc 0.01 μm)	Hoechst 33342 nuclear staining score ([1]; H460, conc 0.1 μm)	Hoechst 33342 nuclear staining score ([1]; H460, conc 1 μm)	Hoechst 33342 nuclear staining score ([1]; HeLa, conc 0.01 μm)	Hoechst 33342 nuclear staining score ([1]; HeLa, conc 0.1 μm)	Hoechst 33342 nuclear staining score ([1]; HeLa, conc 1 μm)	Hoechst 33342 nuclear staining score ([1]; Jily, conc 0.01 μm)	Hoechst 33342 nuclear staining score ([1]; Jily, conc 0.1 μm)	Hoechst 33342 nuclear staining score ([1]; Jily, conc 1 μm)	Hoechst 33342 nuclear staining score ([1]; Jurkat, conc 0.01 μm)	Hoechst 33342 nuclear staining score ([1]; Jurkat, conc 0.1 μm)	Hoechst 33342 nuclear staining score ([1]; Jurkat, conc 1 μm)	Hoechst 33342 nuclear staining score ([1]; MRC5, conc 0.01 μm)	Hoechst 33342 nuclear staining score ([1]; MRC5, conc 0.1 μm)	Hoechst 33342 nuclear staining score ([1]; MRC5, conc 1 μm)	Hoechst 33342 nuclear staining score ([1]; PBLs, conc 0.01 μm)	Hoechst 33342 nuclear staining score ([1]; PBLs, conc 0.1 μm)	Hoechst 33342 nuclear staining score ([1]; PBLs, conc 1 μm)	IC50 (Jily)	further results
10 to 100 nM	N#CCCNc1nonc1-c1nc2ccccc2n1CC(=O)c1ccc(Br)cc1 [Example 47]	0	2 (score 2 relating to strong activity comprising more than 70% of the cells)	2 (score 2 relating to strong activity comprising more than 70% of the cells)	0	2 (score 2 relating to strong activity comprising more than 70% of the cells)	2 (score 2 relating to strong activity comprising more than 70% of the cells)	0	2 (score 2 relating to strong activity comprising more than 70% of the cells)	2 (score 2 relating to strong activity comprising more than 70% of the cells)	2 (score 2 relating to strong activity comprising more than 70% of the cells)	2 (score 2 relating to strong activity comprising more than 70% of the cells)	2 (score 2 relating to strong activity comprising more than 70% of the cells)	0	2 (score 2 relating to strong activity comprising more than 70% of the cells)	2 (score 2 relating to strong activity comprising more than 70% of the cells)	0	0	0	< 10 nM	IC50 (HeLa): 10 to 100 nM; IC50 (Jurkat): < 10 nM; IC50 (MRC5): 100 to 1000 nM
10 to 100 nM	N#CCCNc1nonc1-c1nc2ccccc2n1CC(=O)c1ccc(N)cc1.O=C(O)C(=O)O [Example 61]	0	2 (score 2 relating to strong activity comprising more than 70% of the cells)	2 (score 2 relating to strong activity comprising more than 70% of the cells)	0	2 (score 2 relating to strong activity comprising more than 70% of the cells)	2 (score 2 relating to strong activity comprising more than 70% of the cells)	0	2 (score 2 relating to strong activity comprising more than 70% of the cells)	2 (score 2 relating to strong activity comprising more than 70% of the cells)	0	2 (score 2 relating to strong activity comprising more than 70% of the cells)	2 (score 2 relating to strong activity comprising more than 70% of the cells)	0	2 (score 2 relating to strong activity comprising more than 70% of the cells)	2 (score 2 relating to strong activity comprising more than 70% of the cells)	0	0	0	10 to 100 nM	IC50 (HeLa): 10 to 100 nM; IC50 (Jurkat): 10 to 100 nM; IC50 (MRC5): 10 to 100 nM
10 to 100 nM	CC(=O)Nc1ccc(C(=O)Cn2c(-c3nonc3N)nc3ccccc32)cc1[N+](=O)[O-] [Example 64]	0	2 (score 2 relating to strong activity comprising more than 70% of the cells)	2 (score 2 relating to strong activity comprising more than 70% of the cells)	0	2 (score 2 relating to strong activity comprising more than 70% of the cells)	2 (score 2 relating to strong activity comprising more than 70% of the cells)	2 (score 2 relating to strong activity comprising more than 70% of the cells)	2 (score 2 relating to strong activity comprising more than 70% of the cells)	2 (score 2 relating to strong activity comprising more than 70% of the cells)	2 (score 2 relating to strong activity comprising more than 70% of the cells)	2 (score 2 relating to strong activity comprising more than 70% of the cells)	2 (score 2 relating to strong activity comprising more than 70% of the cells)	0	1 (1 relating to weak activity comprising less than 70% of the cells)	1 (1 relating to weak activity comprising less than 70% of the cells)	0	0	0	10 to 100 nM	IC50 (HeLa): 10 to 100 nM; IC50 (Jurkat): 10 to 100 nM; IC50 (MRC5): 10 to 100 nM
